{"source": "patent US20160052918A1", "about": "“SMALL COMPOUNDS TARGETING TACC3” (JAPANESE FOUNDATION FOR CANCER RESEARCH, priority 2012, published 2016)", "format_in_all_cases": "cell-based", "key": {"[1]": {"test_system": "p53-knockout cells derived from human colon cancer cells HCT-116", "test": "Cell growth by WST assay, combined use of SPL-B and paclitaxel", "conditions": "HCT-116, 72 h, three days", "procedure": "p53-knockout cells derived from human colon cancer cells HCT-116 were cultured after combined administration of paclitaxel and SPL-B. Three days after cultivation, the survival rate of the cells was measured by WST assay."}, "[2]": {"test_system": "OVCAR-3 cells expressing EGFP-α-tubulin", "test": "Cell fate determination by time-lapse photography, OVCAR-3", "conditions": "13.3 μg/ml SPL-A or 2.7 μg/ml SPL-B", "procedure": "(§1) The cells used were SKOV-3 cells and OVCAR-3 cells expressing EGFP-α-tubulin.\n(§2) The OVCAR-3 cells expressing EGFP-α-tubulin were obtained using the same procedure as that for the SKOV-3 cells expressing EGFP-α-tubulin. The cells supplemented with each of SPL-A and SPL-B were synchronized by double thymidine block in the same way as in Example 2. Images were obtained by time-lapse photography and analyzed. The cells of each line were treated with 13.3 μg/ml SPL-A or 2.7 μg/ml SPL-B. The cell fate was manually determined from the image sequence of at least 50 cells with the time point of nuclear envelope breakdown defined as 0."}, "[3]": {"test_system": "SKOV-3 cells expressing EGFP-α-tubulin", "test": "Mitotic arrest of synchronized EGFP-α-tubulin-expressing SKOV-3 cells, time-lapse single-cell analysis", "procedure": "The EGFP-α-tubulin-expressing cells used in the assay will be described. In order to observe mitosis under a fluorescence microscope, cells expressing EGFP-α-tubulin (fusion protein of a fluorescent protein, EGFP, and α-tubulin) were prepared. A system observable under a fluorescence microscope without cell fixation was prepared.\nOvary cancer cells SKOV-3 were cultured in an RPMI1640 medium supplemented with 5% fetal bovine serum. Stable cells expressing EGFP-α-tubulin were transduced by lentiviral transduction using pLenti4/V5-DEST vectors (Registered Trade Mark) (manufactured by Invitrogen Corp.) and selected by the FACS sorting of infected cells using Zeocin (Registered Trade Mark) and subsequent FACSAria (Registered Trade Mark) (Becton, Dickinson and Company).\nThe compounds NPD2448, NPD2568, NPD3574, NPD4089, and C7—O-propylated NPD3574 were each added at varying concentrations to the culture medium of SKOV-3 cells expressing EGFP-α-tubulin and analyzed for their effect on cell division.\nThe SKOV-3 cells expressing EGFP-α-tubulin were synchronized by thymidine block to analyze the effect on cell division of each compound. As shown in the upper part of FIG. 2, each compound was added to the culture medium after the 1st thymidine block. After synchronization by the second thymidine block, images were taken every 2 minutes for 3 days using Leica AF6000 and ×20/0.5 Plan Fluotar objective lens in a phenol red-free RPMI1640 medium supplemented with 5% fetal bovine serum. These time-lapse images were analyzed using ImageJ 1.42a software, and the time of mitotic arrest was determined by visual judgment. The duration of mitosis was manually determined from the image sequences of at least 50 cells.\nThe mitotic arrest (EC50=50% arrest rate) was tested by the microscopic analysis of individual single cells.\nEGFP-α-tubulin-expressing SKOV-3 cells synchronized by double thymidine block in the same way as in Example 2 were treated with each synthesized compound and subjected to time-lapse photography for 3 days. At least 50 cells were observed. The time of arrest of each cell was calculated, and EC50 was determined therefrom.\nEGFP-α-tubulin-expressing SKOV-3 cells supplemented with each of SPL-A and SPL-B at varying concentrations were synchronized by double thymidine block in the same way as in Example 2. Analysis based on single cells was conducted by time-lapse photography. The duration of mitosis was measured from the image sequences of at least 50 cells."}, "OVCAR-3 cells": {"test_system": "OVCAR-3 cells", "test": "Abnormal spindle morphology by immunostaining, OVCAR-3", "conditions": "24 hours", "procedure": "(§3) SPL-A was added at each concentration to the SKOV-3 or OVCAR-3 cells. Twenty four hours after incubation, the cells were fixed and immunostained using antibodies against cell division-related substances such as α-tubulin described below. The percentage of spindle morphology was determined from at least 50 cells. The data was indicated by a mean of three independent experiments and SD.\n(§4) The immunostaining was carried out by the following method: the cells were fixed in 3.7% PFA, methanol, or 10% TCA on a chamber slide, then permeabilized with 0.2% Triton-X100 in PBS, and incubated with primary antibodies. A monoclonal antibody (DM1A) against α-tubulin and monoclonal antibodies (DQ19 and GTU-88) against γ-tubulin were obtained from Sigma-Aldrich Corp. An anti-centrin 2 antibody (sc-27793) was purchased from Santa Cruz Biotechnology, Inc. Fluorescent labelled goat anti-mouse IgG (Cappel) and Cy3 labelled goat anti-rabbit IgG (Millipore) antibodies were used as secondary antibodies. DNA was detected using 4,6-diamidino-2-phenylindole (DAPI). Images were obtained using Leica DM6000B microscope equipped with ×100/1.40-0.70 PlanApo objective lens and Z-projections.\n(§5) FIGS. 5A and B show the results of analyzing spindle morphology. The percentage of spindle morphology was indicated by the percentage (%) of normal, multipolar, disorganized, or monopolar spindles to the number of mitotic cells. […]"}, "[4]": {"test_system": "cancer cell lines SKOV-3 and OVCAR-3", "test": "G2/M-phase cells by PI flow cytometry, cancer cell lines", "conditions": "two cancer cell lines, 24 hours, FIG. 10", "procedure": "(§6) (A) Two cancer cell lines SKOV-3 and OVCAR-3 and three normal cell lines hTERT-RPE, MCF 10A, and 184B5 were treated with SPL-A at concentrations shown in the abscissa of FIG. 10A for 24 hours, then stained with propidium iodide (PI), and analyzed by flow cytometry.\n(§7) The same two cancer cell lines and three normal cell lines as in (A) were treated with each of paclitaxel, vincristine, and vinblastine acting on microtubule formation, S-trityl-L-cysteine (STLC) and SB743921 acting on proteins involved in mitosis, an Aurora kinase inhibitor VX680, and a polo-like kinase (PLK) inhibitor BI2536 at concentrations shown in the abscissa of FIG. 10B for 24 hours, then stained with propidium iodide (PI), and analyzed by flow cytometry."}, "[5]": {"test_system": "normal cell lines hTERT-RPE, MCF 10A, and 184B5", "test": "G2/M-phase cells by PI flow cytometry, normal cell lines", "conditions": "3 normal cell lines, 24 hours, FIG. 10", "procedure": "as §6, §7"}, "mouse lymphoma cell line": {"test_system": "mouse lymphoma cell line", "test": "Cell death of lymphoma (survival rate, WST-1)", "conditions": "72 h, IC50=50% survival rate, three days", "procedure": "The synthesized compounds were analyzed for their activity against cell death induction using a mouse lymphoma cell line (see Non Patent Literature 12), which was a cell line derived from thymic lymphoma developed in p53KO mouse.\nThe number of the lymphoma cells was adjusted to 1.2×10^5 cells/ml. The cells were inoculated at a concentration of 50 μl/well to a 96-well culture dish. A medium containing each RT compound as the novel compound of the present invention at twice the concentration of 50 μl was further added thereto (final concentration: 0.021 to 13.3 μg/ml). Three days after cultivation, the survival rate was calculated using WST-1 reagent (manufactured by F. Hoffmann-La Roche, Ltd.)."}, "[6]": {"test_system": "SKOV-3 cells expressing EGFP-α-tubulin", "test": "Cell fate determination by time-lapse photography, SKOV-3", "conditions": "13.3 μg/ml SPL-A or 2.7 μg/ml SPL-B", "procedure": "as §1, §2"}, "SKOV-3 cells": {"test_system": "SKOV-3 cells", "test": "Abnormal spindle morphology by immunostaining, SKOV-3", "conditions": "24 hours", "procedure": "as §3, §4, §5"}}, "note": "pIC50: −log10 of the molar value."}
{"molecule": "CC(=O)O[C@H]1C(=O)[C@@]2(C)[C@H]([C@H](OC(=O)c3ccccc3)[C@]3(O)C[C@H](OC(=O)[C@H](O)[C@@H](NC(=O)c4ccccc4)c4ccccc4)C(C)=C1C3(C)C)[C@]1(OC(C)=O)CO[C@@H]1C[C@@H]2O", "note": "[paclitaxel]", "values": [{"measurement": "pIC50", "setting": "[1]; adding SPL-B at 150 μM", "value": 8.11}, {"measurement": "pIC50", "setting": "[1]; adding SPL-B at 300 μM", "value": 8.12}, {"measurement": "pIC50", "setting": "[1]; in the absence of SPL-B", "value": 8.08}]}
{"molecule": "O=c1cc(-c2cc3ccccc3oc2=O)c2ccc(O)c(CN3CCC(CCO)CC3)c2o1", "note": "[RT-011]", "values": [{"measurement": "cell fate of most cells", "setting": "[2]", "value": "mitotic death"}, {"measurement": "concentration at which mitotic arrest was induced", "setting": "[3]; Example 5, FIG. 3, final concentrations", "value": 2.667, "unit": "µg/mL"}, {"measurement": "EC50", "setting": "[3]; Homo sapiens, SK-OV-3, 72 h, mitotic arrest, EC50=50% arrest rate, double thymidine block, time-lapse 3 days, at least 50 cells, read-out: SKOV3 EC50", "value": 0.79, "unit": "mg/L"}, {"measurement": "inhibitory effects on cell growth", "setting": "[3]; summary of Table 2 (SKOV-3 mitotic arrest and lymphoma cell death)", "value": "remarkable inhibitory effects on cell growth"}, {"measurement": "percentage of cells with multipolar spindles", "setting": "OVCAR-3 cells; OVCAR-3, 1.25 μg/ml", "value": 44.0, "unit": "%"}, {"measurement": "percentage of cells with disorganized spindles", "setting": "OVCAR-3 cells; OVCAR-3, 2.5 μg/ml", "value": 57.3, "unit": "%"}, {"measurement": "percentage of G2/M-phase cells / cell division", "setting": "[4]", "value": "increased the percentage of G2/M-phase cells in a concentration-dependent manner"}, {"measurement": "inhibitory effect on cell division", "setting": "[5]", "value": "no inhibitory effect on cell division"}, {"measurement": "IC50", "setting": "mouse lymphoma cell line", "value": 2.15, "unit": "mg/L"}, {"measurement": "cell fate of most cells", "setting": "[6]", "value": "mitotic slippage"}, {"measurement": "percentage of cells with multipolar spindles", "setting": "SKOV-3 cells; SKOV-3, 1.25 μg/ml", "value": 53.3, "unit": "%"}, {"measurement": "percentage of cells with disorganized spindles", "setting": "SKOV-3 cells; SKOV-3, 5 μg/ml", "value": 56.7, "unit": "%"}]}
